According to paper PMC2933030 (Biochemical Journal, 2010):

Key:
[1] = system: bulk protein turnover in HCT116 cells; test: Bulk protein turnover assay; assay type: cell-based
[2] = system: β5 site of the proteasome; conditions: cited from earlier work
[3] = system: 4xUb-Luc reporter in MDA-MB-231 cells; test: 4xUb-Luc reporter accumulation assay; assay type: cell-based; conditions: for MDA231 4xUb-Luc Maximal induction: 8 h with compound, over DMSO control
Trypsin = test: Protease selectivity assay, trypsin; assay type: biochemical, human
[4] = system: MDA-MB-231, Calu6, H460, HCT116 and HT29 cells; test: ATPlite cell viability assays across cancer cell lines; assay type: cell-based; conditions: 72 h, read-out: LC50 values across a panel of five cancer cell lines
Cathepsin L = Cathepsin L (Homo sapiens, UniProt P07711); test: Protease selectivity assay, cathepsin L; assay type: biochemical
Cathepsin L, sequence (P07711 114-333): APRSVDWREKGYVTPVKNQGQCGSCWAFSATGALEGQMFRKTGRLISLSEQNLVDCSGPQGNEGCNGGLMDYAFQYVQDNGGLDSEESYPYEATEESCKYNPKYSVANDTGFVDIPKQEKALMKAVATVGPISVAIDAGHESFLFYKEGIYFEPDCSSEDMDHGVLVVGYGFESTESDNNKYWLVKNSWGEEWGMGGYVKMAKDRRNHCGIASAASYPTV

[5] = biological target: human erythrocyte 20S β2c (trypsin-like) site, constitutive proteasome (Homo sapiens, UniProt P49720+Q99436); test: Purified human 20S-PA28 peptidase assay, β2c site; assay type: biochemical
[6] = biological target: Tissue plasminogen activator (Homo sapiens, UniProt P00750); test: Protease selectivity assay, tissue plasminogen activator; assay type: biochemical
Tissue plasminogen activator, sequence (P00750 36-562): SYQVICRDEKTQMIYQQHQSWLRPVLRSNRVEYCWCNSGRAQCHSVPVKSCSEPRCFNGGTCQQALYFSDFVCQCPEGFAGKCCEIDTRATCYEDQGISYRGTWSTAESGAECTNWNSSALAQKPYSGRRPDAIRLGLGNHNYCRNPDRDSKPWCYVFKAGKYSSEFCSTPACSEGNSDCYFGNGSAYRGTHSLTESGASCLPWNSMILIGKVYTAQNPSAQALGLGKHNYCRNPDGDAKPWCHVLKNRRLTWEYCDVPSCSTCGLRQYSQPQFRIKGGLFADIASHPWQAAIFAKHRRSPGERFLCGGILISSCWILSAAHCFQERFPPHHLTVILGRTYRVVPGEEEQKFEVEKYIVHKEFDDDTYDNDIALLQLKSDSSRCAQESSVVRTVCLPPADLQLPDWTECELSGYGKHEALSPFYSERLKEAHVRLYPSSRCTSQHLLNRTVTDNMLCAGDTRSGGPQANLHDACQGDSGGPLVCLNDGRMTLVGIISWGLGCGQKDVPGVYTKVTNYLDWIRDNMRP

[7] = biological target: human peripheral blood monocyte 20S β5i site, immunoproteasome (Homo sapiens, UniProt P20618+P28062); test: Purified human 20S-PA28 peptidase assay, β5i site; assay type: biochemical
[8] = biological target: human peripheral blood monocyte 20S β2i site, immunoproteasome (Homo sapiens, UniProt P40306+P49720); test: Purified human 20S-PA28 peptidase assay, β2i site; assay type: biochemical
Thrombin = Thrombin (Homo sapiens, UniProt P00734); test: Protease selectivity assay, thrombin; assay type: biochemical
MDA-MB-231 cells = test: ATPlite cell viability assay, MDA-MB-231; assay type: cell-based; conditions: Homo sapiens, MDA-MB-231, 72 h, read-out: Cell viability MDA-MB-231 LC50
[9] = biological target: human erythrocyte 20S β1c (caspase-like) site, constitutive proteasome (Homo sapiens, UniProt P28072+Q99436); test: Purified human 20S-PA28 peptidase assay, β1c site; assay type: biochemical
[10] = biological target: human erythrocyte 20S β5 site (Homo sapiens, UniProt P20618+P28074); test: Kinetic analysis of purified 20S inhibition; assay type: biochemical
[11] = biological target: human peripheral blood monocyte 20S β1i site, immunoproteasome (Homo sapiens, UniProt P28065+P40306); test: Purified human 20S-PA28 peptidase assay, β1i site; assay type: biochemical
[12] = biological target: Coagulation Factor β-XIIa (Homo sapiens, UniProt P00748); test: Protease selectivity assay, coagulation Factor β-XIIa; assay type: biochemical
Coagulation Factor β-XIIa, sequence (P00748 373-615 limits assumed, other chains not shown): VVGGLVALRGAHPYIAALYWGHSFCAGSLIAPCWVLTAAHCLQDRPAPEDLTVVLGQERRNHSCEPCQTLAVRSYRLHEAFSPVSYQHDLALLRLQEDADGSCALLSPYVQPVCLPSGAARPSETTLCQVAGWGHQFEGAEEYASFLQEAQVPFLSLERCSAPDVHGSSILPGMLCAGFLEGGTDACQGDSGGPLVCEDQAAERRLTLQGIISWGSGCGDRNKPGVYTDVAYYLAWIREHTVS

SMILES: CC(C)C[C@H](NC(=O)[C@H](Cc1ccccc1)NC(=O)c1cnccn1)B(O)O [Bortezomib]
- inhibition at 3 µM ([1]; Homo sapiens, HCT-116, read-out: inhibition of bulk protein turnover): ~50%
- t½ for dissociation from the β5 site [2]: ~ 110 min
- MDA231 4xUb-Luc Maximal induction [3]: 340±12 fold

SMILES: Cc1ccc(CNC(=O)[C@H](CCc2ccccc2)NC(=O)[C@H](CCc2ccccc2)NC(=O)[C@H](CCc2ccccc2)NC(=O)c2cnc(C)cn2)cc1 [Compound 1, 5-methyl-N-((S)-1-((S)-1-((S)-1-(4-methylbenzylamino)-1-oxo-4-phenylbutan-2-ylamino)-1-oxo-4-phenylbutan-2-ylamino)-1-oxo-4-phenylbutan-2-yl)pyrazine-2-carboxamide]
- Enzyme inhibition at 100 μM compound, Trypsin (Trypsin): < 50%
- CC50 [4]: 50 to 380 nM
- Enzyme inhibition at 100 μM compound, Cathepsin L (Cathepsin L): < 50%
- IC50 [5]: 57000 nM
- Enzyme inhibition at 100 μM compound, Tissue plasminogen activator [6]: < 50%
- IC50 [7]: 8.9 nM
- IC50 [8]: > 100000 nM
- Enzyme inhibition at 100 μM compound, Thrombin (Thrombin): < 50%
- CC50 (MDA-MB-231 cells): 150 ± 23 nM
- IC50 [9]: 28000 nM
- accumulation of the 4xUb-Luc reporter, up to ([3]; 8 h, highest effect observed): approx. 100 fold
- MDA231 4xUb-Luc Maximal induction [3]: 52±16 fold
- Ki [10]: 0.5 ± 0.12 nM
- IC50 [11]: > 100000 nM
- Enzyme inhibition at 100 μM compound, Coagulation Factor β-XIIa [12]: < 50%

SMILES: C[C@@]12OC(=O)[C@]1([C@@H](O)[C@@H]1C=CCCC1)NC(=O)[C@@H]2CCCl [ML858]
- inhibition of bulk protein turnover ([1]; HCT116 cells, 3 μM compound): comparable
